These results are taken from ChEMBL document CHEMBL4725255, “Broad assessment of bioactivity of a collection of spiroindane pyrrolidines through "cell painting"” (Bioorg Med Chem, 2020).

Calls of active or inactive are those of the source. The rule behind the calls is not given here.

The experiment concerns U2OS. Nature of the experiment: Cytotoxicity against human U-2 OS cells assessed as change in cell morphology incubated for 24 hrs at […] measured after various levels of staining by micro XL microscopic-imaging analysis. Type of experiment: functional, cell-based.

For the molecule `N#C[C@@H]1C[C@H]2[C@H]3[C@@H]1C=C[C@]32C1=NCCC1`, the outcome was Active.

Regarding `N#CC1Cc2ccccc2C12CCCN2` (stereo in doubt; 14), the outcome was inactive.

Turning to `N#CC1Cc2ccccc2C12CCCN2` (stereo in doubt; 1), the result was Active.

On to `COCCOC(=O)N1CCCC12CCc1ccc(C#CCO)cc12` (stereo not given), for which the result was Active.

As for `COc1ccc(-c2ccc3c(c2)C2(CCCN2)C(C#N)C3)cc1` (stereo not given), the result was inactive.
